Read-outs that look alike come from different tables or passages of the source.

The test system of assay [1] is IL-4 stimulated expression of CD23 in human Ramos B cells (JAK-1 and JAK-3). Put plainly: Assay for Ramos B-Cell Line Stimulated with IL-4 (CD23 upregulation, FACS). It is filed as cell-based. To be noted: read-out: IC50, Example 41. The essentials:
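Read-out: anti-CD23-PE flow cytometry on Ramos B cells, giving IC50. Cells (5×10^4 per point, RPMI + 5% serum) get compound or DMSO for 1 h at 37 °C, then IL-4 50 units/mL final for 20-24 h.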

Assay [2] relates to Primary human T-cells. As to the kind of experiment: Primary Human T-Cell Proliferation Assay Stimulated with IL-2 (CellTiter-Glo). It is filed as cell-based. The conditions noted are these: read-out: IC50, Example 42. The source says:
The activity of the active compounds of the invention may further be characterized by assaying the effect of the 2,4-substituted pyrimidinediamine compounds described herein on the proliferative response of primary human T-cells. In this assay, primary human T-cells derived from peripheral blood and pre-activated through stimulation of the T-cell receptor and CD28, proliferate in culture in response to the cytokine Interleukin-2 (IL-2). This proliferative response is dependent on the activation of JAK1 and JAK3 tyrosine kinases, which phosphorylate and activate the transcription factor Stat-5. The primary human T-cells are incubated with the 2,4-substituted pyrimidinediamine compounds in the presence of IL-2 for 72 hours and at the assay endpoint intracellular ATP concentrations are measured to assess cell viability. A reduction in cell proliferation compared to control conditions is indicative of inhibition of the JAK kinase pathway. An exemplary assay of this type is described in greater detail in Example 42
Primary human T-cells derived from peripheral blood and pre-activated through stimulation of the T-cell receptor and CD28, proliferate in vitro in response to the cytokine Interleukin-2 (IL-2). This proliferative response is dependent on the activation of JAK-1 and JAK-3 tyrosine kinases, which phosphorylate and activate the transcription factor Stat-5.
Human primary T cells were prepared as follows. Whole blood was obtained from a healthy volunteer, mixed 1:1 with PBS, layered on to Ficoll Hypaque (Amersham Pharmacia Biotech, Piscataway, NJ, Catalog #17-1440-03) in 2:1 blood/PBS:ficoll ratio and centrifuged for 30 min at 4° C. at 1750 rpm. The lymphocytes at the serum: ficoll interface were recovered and washed twice with 5 volumes of PBS. The cells were resuspended in Yssel's medium (Gemini Bio-products, Woodland, CA, Catalog #400-103) containing 40 U/mL recombinant IL2 (R and D Systems, Minneapolis, MN, Catalog #202-IL (20 rig)) and seeded into a flask pre-coated with 1 μg/mL anti-CD3 (BD Pharmingen, San Diego, CA, Catalog #555336) and 5 μg/mL anti-CD28 (Immunotech, Beckman Coulter of Brea CA, Catalog #IM1376). The primary T-cells were stimulated for 3-4 days, then transferred to a fresh flask and maintained in RPMI with 10% FBS and 40 U/mL IL-2.
Primary T-cells were washed twice with PBS to remove the IL-2 and resuspended in Yssel's medium at 2×10^6 cells/mL. 50 μL of cell suspension containing 80 U/mL IL-2 was added to each well of a flat bottom 96 well black plate. For the unstimulated control, IL-2 was omitted from the last column on the plate. Compounds were serially diluted in dimethyl sulfoxide (DMSO, 99.7% pure, cell culture tested, Sigma-Aldrich, St. Louis, MO, Catalog No. D2650) from 5 mM in 3-fold dilutions, and then diluted 1:250 in Yssel's medium. 50 μL of 2× compound was added per well in duplicate and the cells were allowed to proliferate for 72 hours at 37° C.
Proliferation was measured using CellTiter-Glo® Luminescent Cell Viability Assay (Promega), which determines the number of viable cells in culture based on quantitation of the ATP present, as an indicator of metabolically active cells. The substrate was thawed and allowed to come to room temperature. After mixing the Cell Titer-Glo reagent and diluent together, 100 μL was added to each well. The plates were mixed on an orbital shaker for two minutes to induce lysis and incubated at room temperature for an additional ten minutes to allow the signal to equilibrate. Detection was performed using a Wallac Victor2 1420 multilabel counter purchased from Perkin Elmer, Shelton, CT The IC50 calculated based on the results of this assay are provided in TABLE XII.
A general note: ATP-based viability assays read luminescence as a measure of living cells.

[3] abbreviates: Ramos B-cell line stimulated with IL-4, CD23 expression by FACS.
Where [4] appears, read: primary human T-cell proliferation stimulated with IL-2.
The mark [5] stands for this setting: Ramos B cells stimulated with IL-4, CD23 expression by FACS.
Setting [6] is: Homo sapiens, Ramos, Ramos B cells stimulated with IL-4, CD23 expression by FACS.

Take `CC(Oc1ccc(Nc2nc(Nc3ccc(S(N)(=O)=O)cc3)ncc2F)cc1)C(N)=O` (racemic) [Compound I-116, Racemic N4-[4-(1-Aminocarbonyl)ethoxy]phenyl-N2-(4-aminosulfonyl)phenyl-5-fluoro-2,4-pyrimidinediamine]: the results for the IC50 in assay [1] (setting [3]) and in assay [2] (setting [4]) were 0.274 µM and 0.972 µM, respectively.

`Cc1ccc(Nc2ncc(F)c(NC3CN(Cc4ccccc4)CCC3C)n2)cc1S(N)(=O)=O` (racemic) [VII-3, Racemic N2-(3-aminosulfonyl-4-methylphenyl)-N4-(1-benzyl-4-methylpiperidin-3-yl)-5-fluoro-2,4-pyrimidinediamine]: the IC50 in assay [1] (setting [5]) is 14.1 µM; in assay [2] (primary human T-cells stimulated with IL-2, proliferation), 16.5 µM. For `N#CCOc1cccc(Nc2nc(Nc3ccc(S(N)(=O)=O)cc3)ncc2F)c1` [Compound I-3, N2-(4-Aminosulfonyl)phenyl-N4-(3-cyanomethoxy)phenyl-5-fluoro-2,4-pyrimidinediamine], the values for the IC50 in assay [1] (setting [3]) and in assay [2] (setting [4]) were 0.107 µM and 0.987 µM, respectively. Consider `COc1cc(Nc2ncc(F)c(Nc3cccc(OCC#N)c3)n2)ccc1S(N)(=O)=O` [Compound I-7, N2-(4-Aminosulfonyl-3-methoxy)phenyl-N4-(3-cyanomethoxy)phenyl-5-fluoro-2,4-pyrimidinediamine], for which the IC50 was determined as 0.12 µM in assay [1] (setting [3]) and 0.502 µM in assay [2] (setting [4]). Turning to `N#CCOc1ccc(Nc2nc(Nc3ccc(S(N)(=O)=O)cc3)ncc2F)cc1` [Compound I-16, N2-(4-Aminosulfonyl)phenyl-N4-(4-cyanomethoxy)phenyl-5-fluoro-2,4-pyrimidinediamine], the IC50 in assay [1] (setting [3]) turned out to be 0.124 µM; in assay [2] (setting [4]) it was 0.436 µM. Turning to `NS(=O)(=O)c1ccc(Nc2ncc(F)c(Nc3ccc(-c4ccccn4)c(OCF)c3)n2)cc1` [Compound I-177, N2-(4-Aminosulfonylphenyl)-5-fluoro-N4-[4-(2-pyridinyl)-3-fluoromethyleneoxyphenyl]-2,4-pyrimidinediamine], the IC50 in assay [2] (setting [4]) is 0.5 µM. Turning to `C#CCNS(=O)(=O)c1ccc(Nc2nc(Nc3ccc(S(N)(=O)=O)cc3)ncc2F)cc1` [VI-77, N2-(4-Aminosulfonylphenyl)-5-fluoro-N4-[4-(prop-2-ynylaminosulfonyl)phenyl]-2,4-pyrimidinediamine], in assay [2] (Homo sapiens, T-cell, primary human T-cells stimulated with IL-2, proliferation), the IC50 came out at 43.3 µM. Consider `O=S(=O)(c1ccc(Nc2ncc(F)c(Nc3ccc4c(c3)OCCO4)n2)cc1)N1CCCC1` [VII-24, N4-(3,4-Ethylenedioxyphenyl)-5-fluoro-N2-[4-(pyrrolidin-1-ylsulfonyl)phenyl]-2,4-pyrimidinediamine], for which the IC50 in assay [1] (setting [6]) is 0.623 µM. Take `CNS(=O)(=O)c1ccc(Nc2ncc(F)c(Nc3ccc4c(c3)OCCO4)n2)cc1OC` [VII-25, N4-(3,4-Ethyenedioxyphenyl)-5-fluoro-N2-[4-(N-methyl)aminosulfonyl-3-methoxyphenyl]-2,4-pyrimidinediamine]: the IC50 in assay [1] (setting [5]) stood at 0.217 µM. On to `CNS(=O)(=O)c1ccc(Nc2ncc(F)c(Nc3ccc4c(c3)NC(=O)C(C)(C)O4)n2)cc1OC` [VII-37, N4-(2,2-Dimethyl-3-oxo-4H-benz[1,4]oxazin-6-yl)-5-fluoro-N2-[4-(N-methyl)aminosulfonyl-3-methoxyphenyl]-2,4-pyrimidinediamine], for which the IC50 in assay [1] (setting [6]) was determined as 0.0281 µM. In the case of `CN1C(=O)C(C)(C)Oc2ccc(Nc3nc(Nc4ccc(S(N)(=O)=O)cc4)ncc3F)nc21` [VII-43, N2-(4-Aminosulfonylphenyl)-N4-[2,2,4-trimethyl-3-oxo-5-pyrid[1,4]oxazin-5-yl]-5-fluoro-2,4-pyrimidinediamine], the IC50 in assay [1] (setting [5]) is 0.603 µM. For the compound `CN1C(=O)C(C)(C)S(=O)(=O)c2ccc(Nc3nc(Nc4ccc(S(N)(=O)=O)cc4)ncc3F)cc21` [VII-46, N2-(4-Aminosulphonylphenyl)-5-fluoro-N4-(2,2,4-trimethyl-1,1,3-trioxo-benzo[1,4]thiazin-6-yl)-2,4-pyrimidinediamine], in assay [1] (setting [5]), the IC50 was determined as 0.961 µM. In the case of `CN1C(=O)CSc2ccc(N(CC#N)c3nc(Nc4ccc(S(N)(=O)=O)cc4)ncc3F)cc21` [VII-47, N2-(4-Aminosulphonylphenyl)-N4-cyanomethyl-5-fluoro-N4-[3-oxo-4-methyl-benzo[1,4]thiazin-6-yl]-2,4-pyrimidinediamine], the IC50 in assay [1] (setting [6]) worked out at 2.67 µM. For the compound `CC1(C)Oc2cc(Nc3nc(Nc4ccc(S(N)(=O)=O)cc4)ncc3F)cnc2NC1=O` [VII-52, N2-(4-Aminosulfonylphenyl)-N4-[2,2-dimethyl-3-oxo-4H-5-pyrid[1,4]oxazin-7-yl]-5-fluoro-2,4-pyrimidinediamine], in assay [1] (setting [5]), the IC50 was found to be 47.1 µM. With `Cc1ccc(Nc2ncc(F)c(Nc3ccc4nc(O)cc(C)c4c3)n2)cc1S(N)(=O)=O` [VII-73, N2-(3-Aminosulfonyl-4-methylphenyl)-5-fluoro-N4-(2-hydroxy-4-methylquinolin-6-yl)-2,4-pyrimidinediamine], the IC50 in assay [1] (setting [6]) came out at 6.09 µM. Take `Cc1cc(O)nc2ccc(Nc3nc(Nc4cccc(S(N)(=O)=O)c4)ncc3F)cc12` [VII-74, N2-(3-Aminosulfonylphenyl)-5-fluoro-N4-(2-hydroxy-4-methylquinolin-6-yl)-2,4-pyrimidinediamine]: the IC50 in assay [1] (setting [6]) is 4.56 µM. On to `Cc1ccc(Nc2ncc(F)c(Nc3ccc4nc(N(C)C)ccc4c3)n2)cc1S(N)(=O)=O` [VII-75, N2-(3-Aminosulfonyl-4-methylphenyl)-N4-(2-N,N′-dimethylamine-quinolin-6-yl)-5-fluoro-2,4-pyrimidinediamine], for which the IC50 in assay [1] (setting [5]) came out at 0.544 µM. Still for that read-out and setting: the same measure for `CN(C)c1ccc2cc(Nc3nc(Nc4cccc(S(N)(=O)=O)c4)ncc3F)ccc2n1` [VII-76, N2-(3-Aminosulfonylphenyl)-N4-(2-N,N′-dimethylamine-quinolin-6-yl)-5-fluoro-2,4-pyrimidinediamine]: 0.673 µM. Regarding `Cc1ccc2cccc(Nc3nc(Nc4ccc(C)c(S(N)(=O)=O)c4)ncc3F)c2n1` [VII-80, N2-(3-Aminosulfonyl-4-methylphenyl)-5-fluoro-N4-(2-methylquinolin-8-yl)-2,4-pyrimidinediamine], in assay [1] (setting [6]), the IC50 worked out at 2.03 µM. On the same count and under the same terms, for `Cc1ccc2cccc(Nc3nc(Nc4cccc(S(N)(=O)=O)c4)ncc3F)c2n1` [VII-81, N2-(3-Aminosulfonylphenyl)-5-fluoro-N4-(2-methylquinolin-8-yl)-2,4-pyrimidinediamine] the value was 3.07 µM.

`Cc1cc(COc2ccc(Nc3nc(Nc4ccc5c(c4)S(=O)(=O)NC5=O)ncc3F)cc2)no1` [VIII-1, 5-Fluoro-N4-[4-(5-methylisoxazol-3-yl)methyleneoxyphenyl]-N2-(sacchrin-6-yl)-2,4-pyrimidinediamine]: in assay [1] (setting [5]), the IC50 was found to be 1.59 µM.

Turning to “N2-(3-Aminocarbonyl-5-methylphenyl)-5-fluoro-N2-[4-(1-methylpyrazol-3-yl)amidophenyl)-2,4-pyrimidinediamine [II-19]”, the IC50 in assay [1] (setting [3]) amounted to 0.395 µM. On to “N2-(3-aminosulfonyl-4-methyl)phenyl-5-fluoro-N4-(4-thiomethylcarbonyl)phenyl-2,4-pyrimidinediamine [VI-95]”, for which the concentration for half-maximal inhibition (IC50) in assay [1] (setting [5]) was 1 µM.

As to “N2-(4-aminosulfonyl)phenyl-5-fluoro-N4-(4-thiomethylcarbonyl)phenyl-2,4-pyrimidinediamine [VI-94]”, the IC50 in assay [1] (setting [5]) was 0.944 µM. Take “N4-(2-Amino-3-methoxypyrid-6-yl)-N2-[3-(ethoxycarbonylmethylene)aminosulfonylphenyl)-5-fluoro-2,4-pyrimidinediamine [VII-10]”: in assay [1] (setting [5]), the IC50 was found to be 0.863 µM.

As a reminder, the IC50 is the point on the concentration scale where inhibition reaches its midpoint.

For the origin of these results see patent publication US11827628B2, “Compositions and methods for inhibition of the JAK pathway” (Rigel Pharmaceuticals, Inc., priority 2005, dated 2023).
